In patent US10342796B2, “Acrylanilide derivative, preparation method, and applications thereof in pharmacy” (Ancureall Pharmaceutical (Shanghai) Co., Ltd., priority 2015, dated 2019):

How the values were obtained:
Test in all cases: Growth inhibition GI50 in vitro (CCK8/MTT, 72 h)
Type in all cases: cell-based, human
H1975 (EGFR L858R/T790M) = conditions: Homo sapiens, NCI-H1975; Table 13, 72 h; read-out: Range of GI50 H1975 (EGFR L858R/T790M)
Method: (§1) PC-9ER is an acquired Erlotinib resistance cell line of PC-9 cells developed by the investor. […] The four cell lines above were cultured with 1×RPMI1640 complete medium (supplement with 10% FBS). Human colon cancer cell line SW48 (EGFR G719S positive, ATCC). was cultured with L15 complete medium (10% FB S).
(§2) The suspension cells were collected by centrifugation. The supernatant was discard and the cell pellet was resuspended and counted. Different cell concentrations (5˜10×10^4 cells/mL) were prepared according to the growth cycle of each cell line and then seeded on a 96-well plate (Corning), 100 μL/well. The cells were incubated over night at 37° C., 5% CO2. The compounds were added to the cells on the second day with 2 wells in parallel. The final concentration of organic solvent shall not exceed 1%. The cells were continually incubated for 72 h, and then subjected to MTT assay.
(§3) The present compounds and the reference compounds were dissolved with DMSO (Sigma), respectively. […] The storage concentration of compounds was 10 mM and kept at −20° C. They were diluted by 2 times or 10 times with serial dilution before using.
(§4) Dojindo CCK8 reagent kit was used as MTT assay. […] FC meter was used as microplate reader.
(§5) Adherent cell culture medium was discard and immediately replaced with fresh prepared medium which contains 10% CCK8 reagent (100 μL/well). For the suspension cells, CCK8 was directly added to 10% of the final concentration. The cells were continually incubated for 1˜4 h. When the color of control wells turned to dark yellow, the absorption value was measured at OD450 nm. The cell growth rate was calculated according to the following formula: cell growth rate (%)=100*(T−T0)/(C−T0), T=optical density of drug treatment cell well—optical density of blank control well; T0=optical density of cell well before drug treatment—optical density of blank control well; C=optical density of cell well of solvent control group—optical density of blank control well. […] The experiment was independently repeated 1˜3 times, and subject to biological statistical analysis.

PC-9 (EGFR dE746-A750) = conditions: Homo sapiens; Table 13, 72 h; read-out: Range of GI50 PC-9 (EGFR dE746-A750)
Method: as §1, §2, §3, §4, §5

A549 (EGFR WT) = conditions: Homo sapiens, A549; Table 13, 72 h; read-out: Range of GI50 A549 (EGFR WT)
From the text: EGFR wild type cell lines: human epidermal cancer cell line A431 (EGFR WT, amplification and high expression, from Shanghai Cell Bank of Chinese Academy of Sciences and ATCC), NSCLC cell lines NCI-H460 (EGFR WT, Kras G61H and PI3KCA E545K mutants, ATCC) and NCI-H1299 (EGFR WT, ATCC), melanoma cell line A375 (EGFR WT and BRAF V600E mutant, from Shanghai Cell Bank of Chinese Academy of Sciences, ATCC), human lung cancer cell line NCI-H292 (EGFR WT, from human lung mucoepidermoid carcinoma/lymphatic metastasis, purchased from Shanghai Cell Bank of Chinese Academy of Sciences) were cultured with 1×RPMI1640 complete medium which was supplement with 10% FBS. NSCLC cell line A549 (EGFR WT and Kras G12S mutant, from Shanghai Cell Bank of Chinese Academy of Sciences) was cultured with 1×Ham'S F12K complete medium which was supplement with 10% FBS, 1% double-antibiotics and 2 mM glutamine.
as §2, §3, §4, §5

N87 (HER2 Amp) = conditions: Homo sapiens; Table 13, 72 h; read-out: Range of GI50 N87 (HER2 Amp)

C=CC(=O)Nc1cc(Nc2cc(Nc3cc(F)c(OCCOC)c(Cl)c3)ncn2)c(OC)cc1N(C)CCN(C)C [Compound 237, N-(5-(6-(3-chloro-5-fluoro-4-(2-methoxyl-ethoxyl)-phenylamino)-pyrimidin-4-yl-amino)-2-((2-dimethylamino-ethyl)-methyl-amino)-4-methoxyl-phenyl)-acrylamide]
GI50 (H1975 (EGFR L858R/T790M)): 10 to 100 nM
GI50 (PC-9 (EGFR dE746-A750)): 10 to 100 nM
GI50 (A549 (EGFR WT)): > 1000 nM
GI50 (N87 (HER2 Amp)): 10 to 100 nM

C=CC(=O)Nc1cc(Nc2cc(Nc3ccc(OC)c(S(=O)(=O)NC)c3)ncn2)c(OC)cc1N(C)CCN(C)C [Compound 238]
GI50 (H1975 (EGFR L858R/T790M)): 100 to 1000 nM
GI50 (PC-9 (EGFR dE746-A750)): 100 to 1000 nM
GI50 (A549 (EGFR WT)): > 1000 nM
GI50 (N87 (HER2 Amp)): 100 to 1000 nM

C=CC(=O)Nc1cc(Nc2cc(Nc3cc(OC)c(Cl)cc3Cl)ncn2)c(OC)cc1N1CCN(C)CC1 [Compound 239, N-(5-(6-(2,4-dichloro-5-methoxyl-phenylamino)-pyrimidin-4-yl-amino)-2-(4-methyl-piperazin-1-yl)-4-methoxyl-phenyl)-acrylamide]
GI50 (H1975 (EGFR L858R/T790M)): 10 to 100 nM
GI50 (PC-9 (EGFR dE746-A750)): < 10 nM
GI50 (A549 (EGFR WT)): > 1000 nM
GI50 (N87 (HER2 Amp)): 10 to 100 nM

C=CC(=O)Nc1cc(Nc2cc(Nc3cc(OC)c(Cl)cc3Cl)ncn2)c(OC)cc1N1CCC(N2CCOCC2)CC1 [Compound 240, N-(5-(6-(2,4-dichloro-5-methoxyl-phenylamino)-pyrimidin-4-yl-amino)-2-(4-(morpholin-1-yl)-piperidin-1-yl)-4-methoxyl-phenyl)-acrylamide]
GI50 (H1975 (EGFR L858R/T790M)): 10 to 100 nM
GI50 (PC-9 (EGFR dE746-A750)): < 10 nM
GI50 (A549 (EGFR WT)): > 1000 nM
GI50 (N87 (HER2 Amp)): < 10 nM

C=CC(=O)Nc1cc(Nc2cc(Nc3cc(OC)c(Cl)cc3Cl)ncn2)c(OC)cc1N(C)CC(=O)N1CCN(C)CC1 [Compound 241, N-(5-(6-(2,4-dichloro-5-methoxyl-phenylamino)-pyrimidin-4-yl-amino)-2-(methyl-(2-(4-methyl-piperazin-1-yl)-2-oxoethyl)-amino)-4-methoxyl-phenyl)-acrylamide]
GI50 (H1975 (EGFR L858R/T790M)): 100 to 1000 nM
GI50 (PC-9 (EGFR dE746-A750)): 100 to 1000 nM
GI50 (A549 (EGFR WT)): > 1000 nM
GI50 (N87 (HER2 Amp)): 100 to 1000 nM

C=CC(=O)Nc1cc(Nc2cc(Nc3cc(OC)c(Cl)cc3Cl)ncn2)c(OC)cc1OCCN(C)C [Compound 242, N-(5-(6-(2,4-dichloro-5-methoxyl-phenylamino)-pyrimidin-4-ylamino)-2-(2-dimethylamino-ethoxyl)-4-methoxyl-phenyl)-acrylamide]
GI50 (H1975 (EGFR L858R/T790M)): < 10 nM
GI50 (PC-9 (EGFR dE746-A750)): < 10 nM
GI50 (A549 (EGFR WT)): > 1000 nM
GI50 (N87 (HER2 Amp)): < 10 nM

C=CC(=O)Nc1cc(Nc2cc(Nc3cc(OC)c(Cl)cc3Cl)ncn2)c(OC)cc1OCCN1CCOCC1 [Compound 243]
GI50 (H1975 (EGFR L858R/T790M)): 10 to 100 nM
GI50 (PC-9 (EGFR dE746-A750)): 10 to 100 nM
GI50 (A549 (EGFR WT)): > 1000 nM
GI50 (N87 (HER2 Amp)): 10 to 100 nM

C=CC(=O)Nc1cc(Nc2cc(Nc3cc(OC)c(Cl)cc3Cl)ncn2)c(OC)cc1OCCN1CCCC1 [Compound 244, N-(5-(6-(2,4-dichloro-5-methoxyl-phenylamino)-pyrimidin-4-yl-amino)-2-(2-(pyrrolidin-1-yl)-ethoxyl)-4-methoxyl-phenyl)-acrylamide]
GI50 (H1975 (EGFR L858R/T790M)): 10 to 100 nM
GI50 (PC-9 (EGFR dE746-A750)): 10 to 100 nM
GI50 (A549 (EGFR WT)): > 1000 nM
GI50 (N87 (HER2 Amp)): 10 to 100 nM

C=CC(=O)Nc1cc(Nc2cc(Nc3cc(OC)c(Cl)cc3Cl)ncn2)c(OC)cc1OCCCN1CCCC1 [Compound 245]
GI50 (H1975 (EGFR L858R/T790M)): 10 to 100 nM
GI50 (PC-9 (EGFR dE746-A750)): 10 to 100 nM
GI50 (A549 (EGFR WT)): > 1000 nM
GI50 (N87 (HER2 Amp)): 10 to 100 nM

C=CC(=O)Nc1cc(Nc2cc(Nc3cc(OC)c(Cl)cc3Cl)ncn2)c(OC)cc1OCCN1CCCCC1 [Compound 246]
GI50 (H1975 (EGFR L858R/T790M)): 10 to 100 nM
GI50 (PC-9 (EGFR dE746-A750)): 10 to 100 nM
GI50 (A549 (EGFR WT)): > 1000 nM
GI50 (N87 (HER2 Amp)): 10 to 100 nM

C=CC(=O)Nc1cc(Nc2cc(Nc3cc(OC)c(Cl)cc3Cl)ncn2)c(OC)cc1OCCN1CCN(C)CC1 [Compound 247, N-(5-(6-(2,4-dichloro-5-methoxyl-phenylamino)-pyrimidin-4-yl-amino)-2-(2-(4-methyl-piperazin-1-yl)-ethoxyl)-4-methoxyl-phenyl)-acrylamide]
GI50 (H1975 (EGFR L858R/T790M)): 10 to 100 nM
GI50 (PC-9 (EGFR dE746-A750)): < 10 nM
GI50 (A549 (EGFR WT)): > 1000 nM
GI50 (N87 (HER2 Amp)): < 10 nM

C=CC(=O)Nc1cc(Nc2cc(Nc3cc(OC)c(Cl)cc3Cl)ncn2)c(OC)cc1OCCCN1CCN(C)CC1 [Compound 248]
GI50 (H1975 (EGFR L858R/T790M)): 10 to 100 nM
GI50 (PC-9 (EGFR dE746-A750)): < 10 nM
GI50 (A549 (EGFR WT)): > 1000 nM
GI50 (N87 (HER2 Amp)): < 10 nM

C=CC(=O)Nc1cc(Nc2cc(N(C)c3cc(OC)c(Cl)cc3Cl)ncn2)c(OC)cc1N(C)CCN(C)C [Compound 249, N-(5-(6-((2,4-dichloro-5-methoxyl-phenyl)-methyl-amino)-pyrimidin-4-ylamino)-2-((2-dimethylamino-ethyl)-methyl-amino)-4-methoxyl-phenyl)-acrylamide]
GI50 (H1975 (EGFR L858R/T790M)): 10 to 100 nM
GI50 (PC-9 (EGFR dE746-A750)): < 10 nM
GI50 (A549 (EGFR WT)): > 1000 nM
GI50 (N87 (HER2 Amp)): < 10 nM

C=CC(=O)Nc1cc(Nc2cc(Nc3ccc(OC(C)(C)C)c(Cl)c3)ncn2)c(OC)cc1N(C)CCN(C)C [Compound 250, N-(5-(6-(3-chloro-4-tert-butoxy-phenylamino)-pyrimidin-4-yl-amino)-2-((2-dimethylamino-ethyl)-methyl-amino)-4-methoxyl-phenyl)-acrylamide]
GI50 (H1975 (EGFR L858R/T790M)): 10 to 100 nM
GI50 (PC-9 (EGFR dE746-A750)): < 10 nM
GI50 (A549 (EGFR WT)): > 1000 nM
GI50 (N87 (HER2 Amp)): < 10 nM

C#Cc1cc(Nc2cc(Nc3cc(NC(=O)C=C)c(N(C)CCN(C)C)cc3OC)ncn2)ccc1OC [Compound 251, N-(5-(6-(3-acetenyl-4-methoxyl-phenylamino)-pyrimidin-4-yl-amino)-2-((2-dimethylamino-ethyl)-methyl-amino)-4-methoxyl-phenyl)-acrylamide]
GI50 (H1975 (EGFR L858R/T790M)): < 10 nM
GI50 (PC-9 (EGFR dE746-A750)): < 10 nM
GI50 (A549 (EGFR WT)): > 1000 nM
GI50 (N87 (HER2 Amp)): < 10 nM

C=CC(=O)Nc1cc(Nc2cc(Nc3ccc(OCC4(C)COC4)c(Cl)c3)ncn2)c(OC)cc1N(C)CCN(C)C [Compound 252, N-(5-(6-(3-chloro-4-(3-methyl-oxetan-3-yl-methoxyl)-phenylamino)-pyrimidin-4-yl-amino)-2-((2-dimethylamino-ethyl)-methyl-amino)-4-methoxyl-phenyl)-acrylamide]
GI50 (H1975 (EGFR L858R/T790M)): 10 to 100 nM
GI50 (PC-9 (EGFR dE746-A750)): 10 to 100 nM
GI50 (A549 (EGFR WT)): > 1000 nM
GI50 (N87 (HER2 Amp)): 10 to 100 nM

C=CC(=O)Nc1cc(Nc2cc(Nc3ccc(O)c(Cl)c3)ncn2)c(OC)cc1N(C)CCN(C)C [Compound 253, N-(5-(6-(3-chloro-4-hydroxylphenylamino)-pyrimidin-4-ylamino)-2-((2-dimethylamino-ethyl)-methyl-amino)-4-methoxyl-phenyl)-acrylamide]
GI50 (H1975 (EGFR L858R/T790M)): 10 to 100 nM
GI50 (PC-9 (EGFR dE746-A750)): 10 to 100 nM
GI50 (A549 (EGFR WT)): > 1000 nM
GI50 (N87 (HER2 Amp)): 10 to 100 nM

C=CC(=O)Nc1cc(Nc2cc(Nc3ccc(OCC4CCCO4)c(Cl)c3)ncn2)c(OC)cc1N(C)CCN(C)C (centres unmarked) [Compound 254, N-(5-(6-(3-chloro-4-(tetrahydrofuran-2-ylmethoxy)-phenylamino)-pyrimidin-4-ylamino)-2-((2-dimethylamino-ethyl)-methyl-amino)-4-methoxyl-phenyl)-acrylamide]
GI50 (H1975 (EGFR L858R/T790M)): 10 to 100 nM
GI50 (PC-9 (EGFR dE746-A750)): 10 to 100 nM
GI50 (A549 (EGFR WT)): > 1000 nM
GI50 (N87 (HER2 Amp)): 10 to 100 nM

C=CC(=O)Nc1cc(Nc2cc(Nc3ccc(OC)c(C#N)c3)ncn2)c(OC)cc1N(C)CCN(C)C [Compound 255, N-(5-(6-(3-cyano-4-methoxyphenylamino)-pyrimidin-4-yl-amino)-2-((2-dimethylamino-ethyl)-methyl-amino)-4-methoxyl-phenyl)-acrylamide]
GI50 (H1975 (EGFR L858R/T790M)): 10 to 100 nM
GI50 (PC-9 (EGFR dE746-A750)): 10 to 100 nM
GI50 (A549 (EGFR WT)): > 1000 nM
GI50 (N87 (HER2 Amp)): 10 to 100 nM

C=CC(=O)Nc1cc(Nc2cc(Nc3ccc(OC)c(C(C)=O)c3)ncn2)c(OC)cc1N(C)CCN(C)C [Compound 256, N-(5-(6-(3-acetyl-4-methoxyphenylamino)-pyrimidin-4-yl-amino)-2-((2-dimethylamino-ethyl)-methyl-amino)-4-methoxyl-phenyl)-acrylamide]
GI50 (H1975 (EGFR L858R/T790M)): 10 to 100 nM
GI50 (PC-9 (EGFR dE746-A750)): 10 to 100 nM
GI50 (A549 (EGFR WT)): > 1000 nM
GI50 (N87 (HER2 Amp)): 10 to 100 nM
